One assay has as its system WS1. Nature of the assay: Coupled enzyme assay, WS substrate profile (TLC). The class given is biochemical, Marinobacter hydrocarbonoclasticus DSM 8798. More on the design: key to WE formation (spot intensity of wax ester products on TLC), WS1, C10 / WE formation (spot intensity of wax ester products on TLC), WS1, C12 / WE formation (spot intensity of wax ester products on TLC), WS1, C14 / WE formation (spot intensity of wax ester products on TLC), WS1, C16 / WE formation (spot intensity of wax ester products on TLC), WS1, Phytol / WE formation (spot intensity of wax ester products on TLC), WS1, Farnesol: no activity (−); ranging from no activity (−) to most active (+++); ranging from no activity (−) to most active (+++); most active (+++). The settings on record: for WE formation (spot intensity of wax ester products on TLC), WS1, Farnesol: alcohol farnesol; for WE formation (spot intensity of wax ester products on TLC), WS1, Farnesol / WE formation (spot intensity of wax ester products on TLC), WS1, Phytol / WE formation (spot intensity of wax ester products on TLC), WS1, C10 / WE formation (spot intensity of wax ester products on TLC), WS1, C12 / WE formation (spot intensity of wax ester products on TLC), WS1, C14 / WE formation (spot intensity of wax ester products on TLC), WS1, C16: 12 h at 37° C., each substrate 250 μM; for WE formation (spot intensity of wax ester products on TLC), WS1, Phytol: alcohol phytol; for WE product formation by WS1 (TLC), in words: coupled reaction, palmitic acid with hexadecanol, phytanic acid with phytol, phytanoyl-CoA with the alcohols named in the value; for WE formation (spot intensity of wax ester products on TLC), WS1, C10: fatty alcohol C10; for WE formation (spot intensity of wax ester products on TLC), WS1, C12: fatty alcohol C12; for WE formation (spot intensity of wax ester products on TLC), WS1, C14: fatty alcohol C14; for WE formation (spot intensity of wax ester products on TLC), WS1, C16: fatty alcohol C16. As to the method:
(§1) Stock solutions of various substrates were prepared in 50 mM Tris-HCl buffer (pH 8) containing 1% gum arabic, 12.5 μg bovine serum albumin ml^−1, 0.1% taurocholate, and either 100 mM fatty acid, isoprenoid acid, fatty alcohol, or isoprenoid alcohol. Stock solutions were sonicated to disperse the substrates. Substrate profiles of the three WS were tested using coupled enzyme in vitro reactions in which the CoA synthetases Acs1 and Acs2 are added to synthesize the CoA-activated fatty acid phytanic acid substrates from corresponding acid precursors for the WS reactions. Assays were carried out in 500-μl reactions containing in 50 mM Tris-HCl buffer (pH 8.0), 12.5 μl of each acid, and alcohol substrate stock solution (final concentrations of each substrate of 250 μM), 10 mM MgCl2, 10 mM CoASH, 10 mM ATP, 5 mM TCEP, 0.1 U of inorganic pyrophosphatase, 0.25 μg of Acs1 and Acs2 CoA synthetase, and 0.5 μg of WS to be tested. Assays were incubated at 37° C. overnight before thin-layer chromatography (TLC) analysis of the reaction products.
(§2) In vitro WS assay samples were extracted with 500 μl of chloroformmethanol (1:1 [vol/vol]), and extracts were analyzed by TLC with Whatman normal phase silica gel 60 plates and developed using hexane-diethyl ether-acetic acid (90:10:1 [vol/vol/vol]). TLC plates were stained with either iodine vapor or anisaldehyde solution as described earlier (Jork et al., 1990. Thin-layer chromatography reagents and detection methods, vol. 1a. Physical and chemical detection methods: fundamentals, reagents. VHC, Weinheim, Germany). Palmitoyl palmitate and triolein were used as WE and TAG reference compounds, respectively.

The target in another assay is WS2 (Marinobacter nauticus, UniProt A3RE51). Briefly: Coupled enzyme assay, WS substrate profile (TLC). The class given is biochemical, Marinobacter hydrocarbonoclasticus DSM 8798. Further details: key to WE formation (spot intensity of wax ester products on TLC), WS2, C16 / WE formation (spot intensity of wax ester products on TLC), WS2, Phytol / WE formation (spot intensity of wax ester products on TLC), WS2, Farnesol / WE formation (spot intensity of wax ester products on TLC), WS2, C10 / WE formation (spot intensity of wax ester products on TLC), WS2, C12 / WE formation (spot intensity of wax ester products on TLC), WS2, C14: no activity (−); ranging from no activity (−) to most active (+++); ranging from no activity (−) to most active (+++); most active (+++). The settings on record: for WE formation (spot intensity of wax ester products on TLC), WS2, Farnesol: alcohol farnesol; for WE formation (spot intensity of wax ester products on TLC), WS2, Farnesol / WE formation (spot intensity of wax ester products on TLC), WS2, Phytol / WE formation (spot intensity of wax ester products on TLC), WS2, C10 / WE formation (spot intensity of wax ester products on TLC), WS2, C12 / WE formation (spot intensity of wax ester products on TLC), WS2, C14 / WE formation (spot intensity of wax ester products on TLC), WS2, C16: 12 h at 37° C., each substrate 250 μM; for WE formation (spot intensity of wax ester products on TLC), WS2, Phytol: alcohol phytol; for WE product formation by WS2 (TLC), in words: coupled reaction, palmitic acid with hexadecanol, phytanic acid with phytol, phytanoyl-CoA with the alcohols named in the value; for WE formation (spot intensity of wax ester products on TLC), WS2, C10: fatty alcohol C10; for WE formation (spot intensity of wax ester products on TLC), WS2, C12: fatty alcohol C12; for WE formation (spot intensity of wax ester products on TLC), WS2, C14: fatty alcohol C14; for WE formation (spot intensity of wax ester products on TLC), WS2, C16: fatty alcohol C16. The protocol: as §1, §2

In the next assay the test system is WS3. Briefly: Coupled enzyme assay, WS substrate profile (TLC). It counts as biochemical, Marinobacter hydrocarbonoclasticus DSM 8798. Conditions: coupled reaction; palmitic acid with hexadecanol, phytanic acid with phytol. The protocol:
as §1
(§3) In vitro WS assay samples were extracted with 500 μl of chloroformmethanol (1:1 [vol/vol]), and extracts were analyzed by TLC with Whatman normal phase silica gel 60 plates and developed using hexane-diethyl ether-acetic acid (90:10:1 [vol/vol/vol]). […]

The target in another assay is T1, Acinetobacter WS/DGAT (Acinetobacter baylyi, UniProt Q8GGG1).
T1 construct: His6 (N); made in house
T1 sequence (Q8GGG1 1-458): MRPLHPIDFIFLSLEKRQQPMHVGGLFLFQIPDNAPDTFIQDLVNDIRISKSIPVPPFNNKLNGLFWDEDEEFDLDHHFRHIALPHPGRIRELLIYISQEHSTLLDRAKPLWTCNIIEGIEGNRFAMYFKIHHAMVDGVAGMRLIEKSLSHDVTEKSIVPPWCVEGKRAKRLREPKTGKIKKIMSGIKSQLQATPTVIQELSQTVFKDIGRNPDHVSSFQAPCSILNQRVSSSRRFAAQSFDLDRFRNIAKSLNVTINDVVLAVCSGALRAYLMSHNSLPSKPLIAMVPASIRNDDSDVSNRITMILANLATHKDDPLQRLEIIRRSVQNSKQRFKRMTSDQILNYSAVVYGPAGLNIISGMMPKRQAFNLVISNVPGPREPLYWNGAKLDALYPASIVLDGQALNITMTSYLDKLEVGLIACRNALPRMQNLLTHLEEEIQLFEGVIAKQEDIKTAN
Briefly: Coupled enzyme assay (TLC). It counts as biochemical, Acinetobacter baylyi ADP1. The settings on record: phytanic acid and phytol as substrates. The protocol:
as §1, §3

In another assay the test system is Acs1. Briefly: CoA synthetase assay (HPLC, LC-MS). It counts as biochemical, Marinobacter hydrocarbonoclasticus DSM 8798. The settings on record: 10 mM acid, 20 min at 37° C. As to the method: (§4) In vitro reactions were performed as described previously (Trivedi et al., 2004, Nature, 428:441-445) with some modifications. CoA synthetase assays were carried out in 250-μl reaction volumes containing 50 mM Tris-HCl buffer (pH 7.5), 0.1% Triton X-100, 10 mM MgCl2, 5 mM TCEP, 0.1 U of inorganic pyrophosphatase, and as substrates 10 mM phytanic or fatty acids, 10 mM reduced coenzyme A (CoASH), 10 mM ATP, and 0.5 μg of purified Acs (either 1, 2, 3, or 4) protein. The reactions were incubated for 20 min at 37° C. and stopped with 25 μl of 5% acetic acid, followed by HPLC analysis of the reaction products.
(§5) CoA-synthetase assay samples (25 μl) were resolved on an Agilent 1100 HPLC (Agilent Technologies, Palo Alto, Calif.) equipped with a photodiode array detector set to 259 nm. Samples were separated on a reversed-phase Eclipse XDB-C8 column (Agilent Technologies) at a flow rate of 1 ml min^−1. Solvent A consisted of 20 mM ammonium acetate (pH 5.4) in HPLC-grade water, and solvent B contained acetonitrile and methanol (85:15 [vol/vol]). Acyl-CoA and phytanoyl-CoA products were eluted using the following conditions: solvent A-solvent B at 65:35 from 0 to 5 min, followed by a gradient from solvent A-solvent B at 65:35 to 100% solvent B in 30 min. Liquid chromatography-mass spectrometry (LC-MS) analyses of reaction products were done with an LCQ mass spectrophotometer equipped with an electrospray ionization source (ESI) (Thermo Finnigan). Mass fragmentation spectra were monitored in a mass range of m/z 400 to 1,500 with a negative ESI interface.

The next assay has as its system Acs2. Nature of the assay: CoA synthetase assay (HPLC, LC-MS). It counts as biochemical, Marinobacter hydrocarbonoclasticus DSM 8798. Conditions: 10 mM acid, 20 min at 37° C. As to the method:
as §4, §5

The test system of another assay is Acs3. Nature of the assay: CoA synthetase assay (HPLC, LC-MS). The class given is biochemical, Marinobacter hydrocarbonoclasticus DSM 8798. The settings on record: 10 mM acid, 20 min at 37° C. As to the method: as §4, §5
A further assay deals with Acs4. Nature of the assay: CoA synthetase assay (HPLC, LC-MS). It counts as biochemical, Marinobacter hydrocarbonoclasticus DSM 8798. Conditions: 10 mM acid, 20 min at 37° C. As to the method:
as §4, §5

A further assay deals with FadD. Nature of the assay: CoA synthetase assay (HPLC, LC-MS). It counts as biochemical, Pseudomonas putida. Conditions: purified recombinant protein.

“Also recorded” adds a separate entry of the source.

WS2, sequence (A3RE51 entry or part of it): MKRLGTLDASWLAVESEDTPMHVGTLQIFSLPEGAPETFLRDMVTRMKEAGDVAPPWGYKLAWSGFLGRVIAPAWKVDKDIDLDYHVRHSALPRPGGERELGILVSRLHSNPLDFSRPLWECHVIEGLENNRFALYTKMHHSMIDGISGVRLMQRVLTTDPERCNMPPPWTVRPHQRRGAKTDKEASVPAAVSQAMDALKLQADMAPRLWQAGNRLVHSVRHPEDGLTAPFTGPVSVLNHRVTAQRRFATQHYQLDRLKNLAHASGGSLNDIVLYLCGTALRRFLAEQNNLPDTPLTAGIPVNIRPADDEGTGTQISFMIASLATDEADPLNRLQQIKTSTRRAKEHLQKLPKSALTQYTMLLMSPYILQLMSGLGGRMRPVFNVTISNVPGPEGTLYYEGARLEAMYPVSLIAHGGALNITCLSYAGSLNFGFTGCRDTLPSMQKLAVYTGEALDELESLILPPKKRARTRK

With `CC(C)CCCC(C)CCCC(C)CCCC(C)CC(=O)O` (stereo not drawn) [Phytanic acid], in the assay with WS1, the “WE formation (spot intensity of wax ester products on TLC), WS1, Farnesol” value is listed as “+”; the “WE formation (spot intensity of wax ester products on TLC), WS1, Phytol” value is on record as “+”; the “WE product formation by WS1 (TLC), in words” value is “Products were observed”; the “WE formation (spot intensity of wax ester products on TLC), WS1, C10” value is reported as “−”. Further, in the assay on WS1, the “WE formation (spot intensity of wax ester products on TLC), WS1, C12” value was “−”; the “WE formation (spot intensity of wax ester products on TLC), WS1, C14” value is listed as “−”; the “WE formation (spot intensity of wax ester products on TLC), WS1, C16” value is reported as “−”. Besides, at WS2, the “WE formation (spot intensity of wax ester products on TLC), WS2, Farnesol” value is on record as “++”; the “WE formation (spot intensity of wax ester products on TLC), WS2, Phytol” value was “++”; the “WE product formation by WS2 (TLC), in words” value is reported as “Products were observed”; the “WE formation (spot intensity of wax ester products on TLC), WS2, C10” value was “−”. In addition, at WS2, the “WE formation (spot intensity of wax ester products on TLC), WS2, C12” value is on record as “−”; the “WE formation (spot intensity of wax ester products on TLC), WS2, C14” value is recorded as “−”; the “WE formation (spot intensity of wax ester products on TLC), WS2, C16” value is “−”. In addition, in the assay with WS3, the “WE product formation by WS3 (TLC), in words” value was “no products were observed”. The “Isoprenoid WE formation by Acinetobacter WS/DGAT” value at Acinetobacter WS/DGAT is on record as “did not show isoprenoid WE formation”. Also, the “CoA activation by Acs1” value with Acs1 is “Only Acs2 converted phytanic acid into phytanoyl-CoA”. Moreover, the “CoA activation by Acs2” value in the assay on Acs2 is listed as “converted phytanic acid into phytanoyl-CoA”. The “CoA activation by Acs3” value with Acs3 is listed as “Only Acs2 converted phytanic acid into phytanoyl-CoA”. Moreover, the “CoA activation by Acs4” value with Acs4 is “Only Acs2 converted phytanic acid into phytanoyl-CoA”. Besides, the “CoA activation by P. putida FadD” value in the assay with FadD is reported as “does not synthesize phytanoyl-CoA; also recorded: did not activate phytanic acid”.

Take `CCCCCCCCCCCCCCCC(=O)O` [C16, palmitic acid]: in the assay on WS1, the “WE formation (spot intensity of wax ester products on TLC), WS1, Farnesol” value is listed as “++”; the “WE formation (spot intensity of wax ester products on TLC), WS1, Phytol” value is on record as “+”; the “WE product formation by WS1 (TLC), in words” value is recorded as “Products were observed”; the “WE formation (spot intensity of wax ester products on TLC), WS1, C10” value was “+”. In addition, in the assay on WS1, the “WE formation (spot intensity of wax ester products on TLC), WS1, C12” value is given as “++”; the “WE formation (spot intensity of wax ester products on TLC), WS1, C14” value was “+”; the “WE formation (spot intensity of wax ester products on TLC), WS1, C16” value is listed as “+++”. For the same compound, at WS2, the “WE formation (spot intensity of wax ester products on TLC), WS2, Farnesol” value is listed as “++”; the “WE formation (spot intensity of wax ester products on TLC), WS2, Phytol” value is listed as “+”; the “WE product formation by WS2 (TLC), in words” value is on record as “Products were observed”; the “WE formation (spot intensity of wax ester products on TLC), WS2, C10” value was “+”. In addition, at WS2, the “WE formation (spot intensity of wax ester products on TLC), WS2, C12” value is given as “+”; the “WE formation (spot intensity of wax ester products on TLC), WS2, C14” value is listed as “++”; the “WE formation (spot intensity of wax ester products on TLC), WS2, C16” value is reported as “+++”. In the assay with WS3, the “WE product formation by WS3 (TLC), in words” value is recorded as “no products were observed”. Besides, in the assay with Acs2, the “CoA activation by Acs2” value is listed as “most activity”. In the assay with Acs3, the “CoA activation by Acs3” value is on record as “most activity”. Further, the “CoA activation by Acs4” value in the assay on Acs4 is recorded as “most activity”.

The values are drawn from US7897369B2, “Isoprenoid wax ester synthases, isoprenoid acyl CoA-synthetases, and uses thereof” (Regents of the University of Minnesota, priority 2007, dated 2011).
